Data from patent US4666907A, “Phenothiazine and derivatives and analogs and use as leukotriene biosynthesis inhibitors” (Merck Frosst Canada, Inc., priority 1986, dated 1987).
≈ marks a conversion by molar mass, not a printed value. Read-outs that look alike come from different tables or passages of the source.

Assays:
[1] = system: asthmatic rats; assay: Asthmatic rat assay (duration of dyspnoea after egg albumin aerosol); format: in vivo; conditions: po; for inhibition in vivo at 3 mg/kg: 3 mg/kg p.o.; for inhibition in vivo at 1.5 mg/kg: 1.5 mg/kg p.o.
Excerpt: Rats were obtained from an inbred line of asthmatic rats. Both female and male rats from 200 to 300 g were used.
Egg albumin (EA), grade V, crystallized and lyophilized, was obtained from Sigma Chemical Co., St. Louis. Bordetella pertussis vaccine, containing 30×10^9 killed bacteria per ml was obtained from the Institut Armand-Frappier, Laval des Rapides, Quebec. Aluminum hydroxide was obtained from the Regeis Chemical Company, Chicago.
The challenge and subsequent respiratory recordings were carried out in a clear plastic box with internal dimensions 10×6×4 inches. The top of the box was removable; in use, it was held firmly in place by four clamps and an airtight seal was maintained by a soft rubber gasket. […] A Fleisch No. 0000 pneumotachograph was inserted into one end of the box and coupled to a Grass volumetric pressure transducer (PT5-A) which was then connected to a Beckman Type R Dynograph through appropriate couplers. While aerosilizing the antigen, the outlets were open and the pneumotachograph was isolated from the chamber. The outlets were closed and the pneumotachograph and the chamber were connected during the recording or the respiratory patterns. For challenge, 2 ml of a 3% solution of antigen in saline was placed into each nebulizer and the aerosol was generated with air from a small Potter diaphragm pump operating at 10 psi and a flow of 8 liters/minutes.
Rats were sensitized by injection (s.c.) 1 ml of a suspension containing 1 mg EA and 200 mg aluminum hydroxide in saline. Simultaneously, they received an injection (i.p.) of 0.5 ml of B. pertussis vaccine. They were used between days 14 and 18 postsensitization. In order to eliminate the serotonin component of the response, rats were pretreated intravenously 5 minutes prior to aerosol challenge with […] methylserzide. Rats were then exposed to an aerosol of 3% EA in saline for exactly 1 minute, then their respiratory profiles were recorded for a further 25-30 minutes. The duration of continuous dyspnoea was measured from the respiratory recordings.
Compounds were generally administered either intraperitoneally 1 hour prior to challenge or orally 11/2 hours prior to challenge. They were either dissolved in dimethylsulfoxide or suspended in 0.1% methocel and 0.5% Tween 80. The volume injected has 2 ml kg^-1 (intraperitoneally) or 10 ml kg^-1 (orally). Prior to oral treatment rats were starved overnight. Their activity was determined in terms of their ability to decrease the duration of symptoms of dyspnoea in comparison with a group of vehicle-treated controls. Usually, a compound was evaluated at a series of doses and an ED50 was determined. This was defined as the dose (mg/kg) which would inhibit the duration of symptoms by 50%.

[2] = system: Mouse peritoneal macrophages; assay: Mouse macrophage assay (zymosan-stimulated arachidonic acid metabolites, Leukotriene C4); format: cell-based; conditions: read-out: Macrophage IC50
Procedure: Mouse peritoneal macrophages were treated sequentially with arachidonic acid (labelled with tritium); the compound being evaluated as an inhibitor, and a stimulator (zymosan). Metabolites derived from arachidonic acid (PGE2, 6-Keto PG-F1@ and Leukotriene C4) were separated from the incubation medium by extraction and chromatography, and then quantitated by determining the amount of radioactivity (cpm) associated with each of them. […] (This protocol is identical to that described in the reference except that the radioactivity herein associated with the LTC4 was determined by counting an aliquot of the final aqueous solution directly rather than chromatographing it first).
Reference: Humes, J. L. et al., J. Biol. Chem. 257, 1591-4 (1982).

[3] = system: LTB4 formation in rat PMN; assay: Rat polymorphonuclear leukocyte (P.M.N.) assay, LTB4 formation; format: cell-based; conditions: A-23187, LTB4
Procedure: Rats under ether anesthesia are injected (i.p.) with 8 ml of a suspension of sodium caseinate (6 grams in ca. 50 ml water). After 15-24 hours the rats are sacrificed (CO2) and the cells from the peritoneal cavity are recovered by lavage with 20 ml of buffer (Eages MEM containing 30 mM HEPES adjusted to pH 7.4 with NaOH). The cells are pelleted (350×g, 5 min.), resuspended in buffer with vigorous shaking, filtered through lens paper, recentrifuged and finally suspended in buffer at a concentration of […]. A 500 μl aliquot of PMN suspension and test compound are preincubated for 2 minutes at 37° C., followed by the addition of 10 μM A-23187. The suspension is stirred for an additional 4 minutes then bioassayed for LTB4 content by adding an aliquot to a second 500 μl portion of the PMN at 37° C. The LTB4 produced in the first incubation causes aggregation of the second PMN, which is measured as a change in light transmission. The size of the assay aliquot is chosen to give a submaximal transmission change (usually […]) for the untreated control. The percentage inhibition of LTB4 formation is calculated from the ratio of transmission change in the sample to the transmission change in the compound-free control.

[4] = system: sensitized guinea pig trachea; assay: Antigen challenge 'in vitro' assay (egg albumin-induced contraction of sensitized tracheal chains); format: cell-based; conditions: Cavia porcellus; for inhibition at 10 µg/mL / inhibition at 1 µg/mL: read-out: In Vitro Antigen Challenge % Inhibition; for inhibition at 3 µg/mL: at 3 μg/ml
Procedure: Male guinea pigs weighing 300-350 g were sensitized by injecting (i.p.) 0.5 ml of a suspension containing 0.4 mg of egg albumin (Ovalbumin, Grade V, Sigma Chemical Co.) and 4.0 g aluminum hydroxide in 19.6 ml of saline. Two weeks were permitted for sensitization to occur.
Three sensitized guinea pigs were stunned and exsanguinated. The tracheas were removed, freed of adhering tissue and divided longitudinally by cutting through the cartilaginous tissue directly opposite the muscle insertion. Each opened trachea was then transected between every second cartilage. Four of the cut sections were tied together, end to end in a series with No. 0.7 silk thread ensuring that the tracheal muscles were all in the same vertical plane. Thus, each chain consisted of tissue from three different animals.
The chain so formed was then suspended under 1 g of tension (by silk ties at each end) in a 20 ml organ bath containing 10 ml of modified^1 Krebs-Henseleit buffer solution gassed with 95% O2 and 5% CO2 at 37° C. Mepyramine (0.55 μg/ml) and indomethacin (2.67 μg/ml were added to the buffer to avoid the contribution of histamine receptors and cyclooxygenase products to the contraction. To record responses one end of the tracheal chain was attached to a Gould Statham UC-2 force displacement transducer which was connected to a Beckman Type R-dynograph.The preparations were allowed to equilibrate for one hour during which time the tissues were automatically washed (10 ml volume displacement) ever 6 minutes.
After the equilibration period the tissues were primed with methacholine (3 μg/lml; 1.5×10^-5 M), washed and allowed to recover to baseline. The tissues were treated again with a second dose of methacholine, washed, allowed to return to baseline and washed for an additional hour.
Two chains were used as a control. These were incubated in a concentration of egg albumin sufficient to induce an average contraction of 50-80% of the methacholine response.
Each compound to be tested was added to two other baths (at a final concentration in each bath of 10 μg/ml or lower) 15 minutes prior to challenging the fresh chains with egg albumin.
The response of the challenged tissue was expressed as a percentage of the methacholine maximum. The % inhibition for each compound was then calculated. Compounds which at 10 μg/ml (final concentration) inhibited the egg albumin response by 50% or more were retested at a lower concentration.

[5] = mouse peritoneal macrophages, zymosan

Row | Compound | IC50 [2, 5] | IC50 [3] | inhibition at 10 µg/mL ([4]; at 10 μg/ml) | other results
1 | COc1ccc2c(c1Cl)Sc1cc(F)ccc1N2C |  |  |  | inhibition in vivo at 3 mg/kg [1]: 42%
2 | COc1ccc2c(c1Cl)[S+]([O-])c1ccccc1N2 (centres unmarked) |  |  |  | inhibition in vivo at 3 mg/kg [1]: 56%
3 | O=S1(=O)c2ccccc2Nc2ccc(O)c(O)c21 |  |  |  | inhibition in vivo at 1.5 mg/kg [1]: 65%
4 | CC(=O)N1c2ccccc2Sc2c1ccc(O)c2Cl |  |  |  | inhibition in vivo at 3 mg/kg [1]: 61%
5 | CC(=O)Oc1ccc2c(c1Cl)Sc1ccccc1N2C(C)=O |  |  |  | inhibition in vivo at 3 mg/kg [1]: 58%
6 | COc1ccc2c(c1Cl)Sc1cc(F)ccc1N2C(C)=O |  |  |  | inhibition in vivo at 3 mg/kg [1]: 36%
7 | COc1ccc2c(c1Cl)[S+]([O-])c1cc(F)ccc1N2C (centres unmarked) |  |  |  | inhibition in vivo at 3 mg/kg [1]: 52%
8 | COc1ccc2c(c1Cl)Oc1ccccc1N2C |  |  |  | inhibition in vivo at 0.3 mg/kg ([1]; 0.3 mg/kg p.o.): 49%
9 | Clc1cccc2c1Sc1ccccc1N2 [Compound 3] | 0.01 to 0.1 µg/mL | 0.05 to 0.5 µg/mL (≈ 0.214 to 2.14 µM) | 37% | 
10 | Cc1cccc2c1Nc1ccccc1S2 [Compound 4] | 5 µg/mL |  | 76% | 
11 | FC(F)(F)c1ccc2c(c1)Nc1ccccc1S2 [Compound 5] | 0.1 µg/mL |  | 7% | 
12 | Oc1ccc2c(c1)Sc1ccccc1N2 [Compound 6] | 0.1 to 1 µg/mL | 0.016 µg/mL (≈ 0.0743 µM) | 100% | 
13 | CC(=O)Oc1ccc2c(c1)Sc1ccccc1N2 [Compound 7] | 0.01 to 0.1 µg/mL | 0.005 µg/mL (≈ 0.0194 µM) | 60% | 
14 | CC(=O)c1ccc2c(c1)Nc1ccccc1S2 [Compound 8] | 0.2 µg/mL |  | 60% | 
15 | Oc1ccc2c(c1Cl)Sc1ccccc1N2 [Compound 9] |  | 0.005 µg/mL (≈ 0.02 µM) |  | inhibition at 3 µg/mL [4]: 97%
16 | Cc1ccc(S(=O)(=O)Oc2ccc3c(c2Cl)Sc2ccccc2N3)cc1 [Compound 10] |  | 0.1 to 1 µg/mL (≈ 0.248 to 2.48 µM) |  | inhibition at 3 µg/mL [4]: 14%
17 | CC(=O)Oc1ccc2c(c1Cl)Sc1ccccc1N2 [Compound 11] | 0.1 µg/mL |  | 100% | 
18 | COc1ccc2c(c1Cl)Sc1ccccc1N2 [Compound 12] |  | 0.01 to 0.1 µg/mL (≈ 0.0379 to 0.379 µM) |  | inhibition at 1 µg/mL ([4]; at 1 μg/ml): 60%

Row | Compound | IC50 [2, 5] | IC50 [3] | inhibition at 10 µg/mL ([4]; at 10 μg/ml) | other results
19 | COc1ccc2c(c1)Sc1cc(Cl)ccc1N2 [Compound 13] | 0.12 µg/mL |  | 22% | 
20 | Clc1ccc2c(c1)Sc1cc(Cl)ccc1N2 [Compound 14] | 0.01 to 0.1 µg/mL | 0.005 to 0.05 µg/mL (≈ 0.0186 to 0.186 µM) | 1% | 
21 | O=[N+]([O-])c1ccc2c(c1)Sc1cc([N+](=O)[O-])ccc1N2 [Compound 15] | 0.0016 to 0.008 µg/mL |  | 21% | 
22 | COc1ccc2c(c1)Sc1c(cc(OC)c(O)c1Br)N2 [Compound 16] |  | 0.01 µg/mL (≈ 0.0282 µM) |  | 
23 | CN(C)c1ccc2c(c1)Sc1cc(N(C)C)ccc1N2 [Compound 17] | 5 µg/mL |  |  | 
24 | Oc1cccc2c1Nc1ccccc1S2 [Compound 18] |  | 0.05 to 0.5 µg/mL (≈ 0.232 to 2.32 µM) | 3% | 
25 | CC(=O)Oc1ccc2c(c1)Sc1cc(F)ccc1N2 [Compound 19] |  | 0.005 µg/mL (≈ 0.0182 µM) |  | 
26 | CC(C)C(=O)Oc1ccc2c(c1Cl)Sc1ccccc1N2 [Compound 20] |  | 0.005 to 0.05 µg/mL (≈ 0.0156 to 0.156 µM) | 65% | 
27 | CC(=O)N1c2ccccc2Sc2ccccc21 [Compound 21] | 5 µg/mL |  |  | 
28 | COc1ccc2c(c1Cl)Sc1ccccc1N2C(C)=O [Compound 22] | 1 µg/mL | 1 µg/mL (≈ 3.27 µM) | 91% | 
29 | FC(F)(F)c1ccc2c(c1)Nc1ccccc1O2 [Compound 23] |  | 0.05 to 0.5 µg/mL (≈ 0.199 to 1.99 µM) |  | inhibition at 3 µg/mL [4]: 40%
30 | c1ccc2c(c1)Nc1ccccc1O2 [Compound 24] |  | 5 µg/mL (≈ 27.3 µM) |  | IC50 ([2]; Mus musculus): 0.1 µg/mL; inhibition at 1 µg/mL [4]: 88%
31 | CC(=O)Oc1ccc2c(c1)Sc1cccc(Cl)c1N2C [Compound 25] |  | 0.5 µg/mL (≈ 1.64 µM) |  | inhibition at 3 µg/mL [4]: 1 to 9%
32 | COc1ccc2c(c1Cl)Sc1ccccc1N2C [Compound 26] | 1 µg/mL | 5 µg/mL (≈ 18 µM) | 3% | 
33 | CC(C)C(=O)Oc1ccc2c(c1Cl)Sc1ccccc1N2C [Compound 27] |  | 0.005 to 0.05 µg/mL (≈ 0.015 to 0.15 µM) |  | inhibition at 3 µg/mL [4]: 6%
34 | c1ccc2c(c1)Nc1ccccc1S2 [drawing 34] |  | 0.4 µg/mL (≈ 2.01 µM) |  | IC50 ([2]; Mus musculus): 0.06 µg/mL; inhibition at 10 µg/mL [4]: 100%
35 | c1ccc2c(c1)Nc1ccccc1O2 [drawing 75] |  |  |  | inhibition in vivo at 1.5 mg/kg [1]: 51%
